Experimental data from PubChem BioAssay (NCI).
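In this assay, cells in 96-well plates receive the compound at five concentrations for 48 hours. Endpoints are linearly interpolated between the surrounding concentrations. GI50: concentration for 50% inhibition of growth. TGI: concentration producing complete growth inhibition.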

Experiments:
Test in all cases: NCI-60 cell line screen, 48 h
LOX IMVI melanoma = test system: LOX IMVI melanoma
HCT-116 colon = test system: HCT-116 colon
SW-620 colon = test system: SW-620 colon
HL-60(TB) leukemia = test system: HL-60(TB) leukemia
HS 578T breast = test system: HS 578T breast
SK-MEL-2 melanoma = test system: SK-MEL-2 melanoma
OVCAR-3 ovarian = test system: OVCAR-3 ovarian
MOLT-4 leukemia = test system: MOLT-4 leukemia
EKVX NSCLC = test system: EKVX NSCLC
IGROV1 ovarian = test system: IGROV1 ovarian
CCRF-CEM leukemia = test system: CCRF-CEM leukemia
M14 melanoma = test system: M14 melanoma
T-47D breast = test system: T-47D breast
NCI-H226 lung = test system: NCI-H226 lung
UACC-62 melanoma = test system: UACC-62 melanoma
SNB-75 CNS = test system: SNB-75 CNS
U251 CNS = test system: U251 CNS
HOP-92 NSCLC = test system: HOP-92 NSCLC
SK-OV-3 ovarian = test system: SK-OV-3 ovarian
NCI-H460 lung = test system: NCI-H460 lung
UACC-257 melanoma = test system: UACC-257 melanoma
TK-10 renal = test system: TK-10 renal
ACHN renal = test system: ACHN renal
OVCAR-5 ovarian = test system: OVCAR-5 ovarian
UO-31 renal = test system: UO-31 renal
OVCAR-8 ovarian = test system: OVCAR-8 ovarian
PC-3 prostate = test system: PC-3 prostate
SF-295 CNS = test system: SF-295 CNS
BT-549 breast = test system: BT-549 breast
SK-MEL-28 melanoma = test system: SK-MEL-28 melanoma
HCT-15 colon = test system: HCT-15 colon
NCI-H522 lung = test system: NCI-H522 lung
COLO 205 colon = test system: COLO 205 colon
KM12 colon = test system: KM12 colon
SN12C renal = test system: SN12C renal
A549 NSCLC = test system: A549 NSCLC
RXF 393 renal = test system: RXF 393 renal
HCC-2998 colon = test system: HCC-2998 colon
HOP-62 NSCLC = test system: HOP-62 NSCLC
K-562 leukemia = test system: K-562 leukemia
A498 renal = test system: A498 renal
NCI/ADR-RES ovarian = test system: NCI/ADR-RES ovarian
SK-MEL-5 melanoma = test system: SK-MEL-5 melanoma
SR leukemia = test system: SR leukemia
MCF7 breast = test system: MCF7 breast
CAKI-1 renal = test system: CAKI-1 renal
MDA-MB-435 = test system: MDA-MB-435
SNB-19 CNS = test system: SNB-19 CNS
MDA-MB-231 breast = test system: MDA-MB-231 breast
NCI-H23 lung = test system: NCI-H23 lung
786-0 renal = test system: 786-0 renal
RPMI-8226 leukemia = test system: RPMI-8226 leukemia
DU-145 prostate = test system: DU-145 prostate
OVCAR-4 ovarian = test system: OVCAR-4 ovarian
SF-539 CNS = test system: SF-539 CNS
HT29 colon = test system: HT29 colon
SF-268 CNS = test system: SF-268 CNS

COc1cc(C2CC(c3cccc(Br)c3)=NN2C(C)=O)cc(OC)c1OC (centres undefined)
GI50 (LOX IMVI melanoma): 719 nM
TGI (LOX IMVI melanoma): 57300 nM
GI50 (HCT-116 colon): 479 nM
TGI (HCT-116 colon): > 55900 nM
GI50 (SW-620 colon): 309 nM
TGI (SW-620 colon): > 100000 nM
GI50 (HL-60(TB) leukemia): 191 nM
TGI (HL-60(TB) leukemia): 553 nM
GI50 (HS 578T breast): 397 nM
TGI (HS 578T breast): > 100000 nM
GI50 (SK-MEL-2 melanoma): 3510 nM
TGI (SK-MEL-2 melanoma): 55500 nM
GI50 (OVCAR-3 ovarian): 158 nM
TGI (OVCAR-3 ovarian): 610 nM
GI50 (MOLT-4 leukemia): 368 nM
TGI (MOLT-4 leukemia): 5050 nM
GI50 (EKVX NSCLC): 1480 nM
TGI (EKVX NSCLC): > 100000 nM
GI50 (IGROV1 ovarian): 2040 nM
TGI (IGROV1 ovarian): > 100000 nM
GI50 (CCRF-CEM leukemia): 264 nM
TGI (CCRF-CEM leukemia): 4500 nM
GI50 (M14 melanoma): 555 nM
TGI (M14 melanoma): 50200 nM
GI50 (T-47D breast): 372 nM
TGI (T-47D breast): 29700 nM
GI50 (NCI-H226 lung): 11500 nM
TGI (NCI-H226 lung): > 58500 nM
GI50 (UACC-62 melanoma): 309 nM
TGI (UACC-62 melanoma): 29300 nM
GI50 (SNB-75 CNS): 368 nM
TGI (SNB-75 CNS): > 100000 nM
GI50 (U251 CNS): 454 nM
TGI (U251 CNS): 53400 nM
GI50 (HOP-92 NSCLC): 17000 nM
TGI (HOP-92 NSCLC): 83800 nM
GI50 (SK-OV-3 ovarian): 379 nM
TGI (SK-OV-3 ovarian): 47200 nM
GI50 (NCI-H460 lung): 344 nM
TGI (NCI-H460 lung): 11700 nM
GI50 (UACC-257 melanoma): 25300 nM
TGI (UACC-257 melanoma): > 84100 nM
GI50 (TK-10 renal): 16500 nM
TGI (TK-10 renal): 72200 nM
GI50 (ACHN renal): 710 nM
TGI (ACHN renal): > 84400 nM
GI50 (OVCAR-5 ovarian): 2930 nM
TGI (OVCAR-5 ovarian): > 100000 nM
GI50 (UO-31 renal): 3330 nM
TGI (UO-31 renal): > 65600 nM
GI50 (OVCAR-8 ovarian): 618 nM
TGI (OVCAR-8 ovarian): > 46200 nM
GI50 (PC-3 prostate): 162 nM
TGI (PC-3 prostate): 36200 nM
GI50 (SF-295 CNS): 238 nM
TGI (SF-295 CNS): 16300 nM
GI50 (BT-549 breast): 10200 nM
TGI (BT-549 breast): 40700 nM
GI50 (SK-MEL-28 melanoma): 3800 nM
TGI (SK-MEL-28 melanoma): > 77900 nM
GI50 (HCT-15 colon): 328 nM
TGI (HCT-15 colon): 29500 nM
GI50 (NCI-H522 lung): 286 nM
TGI (NCI-H522 lung): 4470 nM
GI50 (COLO 205 colon): 256 nM
TGI (COLO 205 colon): 802 nM
GI50 (KM12 colon): 247 nM
TGI (KM12 colon): 18000 nM
GI50 (SN12C renal): 2760 nM
TGI (SN12C renal): > 81400 nM
GI50 (A549 NSCLC): 635 nM
TGI (A549 NSCLC): > 100000 nM
GI50 (RXF 393 renal): 266 nM
TGI (RXF 393 renal): 976 nM
GI50 (HCC-2998 colon): 1110 nM
TGI (HCC-2998 colon): 15700 nM
GI50 (HOP-62 NSCLC): 3560 nM
TGI (HOP-62 NSCLC): 62800 nM
GI50 (K-562 leukemia): 114 nM
TGI (K-562 leukemia): 11700 nM
GI50 (A498 renal): 514 nM
TGI (A498 renal): > 19700 nM
GI50 (NCI/ADR-RES ovarian): 324 nM
TGI (NCI/ADR-RES ovarian): 34000 nM
GI50 (SK-MEL-5 melanoma): 289 nM
TGI (SK-MEL-5 melanoma): 14900 nM
GI50 (SR leukemia): 40.2 nM
TGI (SR leukemia): > 100000 nM
GI50 (MCF7 breast): 208 nM
TGI (MCF7 breast): 27100 nM
GI50 (CAKI-1 renal): 282 nM
TGI (CAKI-1 renal): 54100 nM
GI50 (MDA-MB-435): 51.4 nM
TGI (MDA-MB-435): 297 nM
GI50 (SNB-19 CNS): 514 nM
TGI (SNB-19 CNS): > 100000 nM
GI50 (MDA-MB-231 breast): 1670 nM
TGI (MDA-MB-231 breast): > 46000 nM
GI50 (NCI-H23 lung): 1660 nM
TGI (NCI-H23 lung): > 81300 nM
GI50 (786-0 renal): 771 nM
TGI (786-0 renal): > 65400 nM
GI50 (RPMI-8226 leukemia): 181 nM
TGI (RPMI-8226 leukemia): 670 nM
GI50 (DU-145 prostate): 371 nM
TGI (DU-145 prostate): 6610 nM
GI50 (OVCAR-4 ovarian): 624 nM
TGI (OVCAR-4 ovarian): > 100000 nM
GI50 (SF-539 CNS): 265 nM
TGI (SF-539 CNS): 2620 nM
GI50 (HT29 colon): 284 nM
TGI (HT29 colon): 14900 nM
GI50 (SF-268 CNS): 785 nM
TGI (SF-268 CNS): 83300 nM
